# Data: PubChem BioAssay AID330 (DTP/NCI, 2004)
# Values joined by “and” are separate entries in the source; they are usually repeats but may differ in a detail not shown here. Identical values can stand only once. Inconclusive results and toxic doses are left out. Numbered stars: 1 amine (or outer) side, 2 acyl side, 3 side chain; on linkers, the order of the positions; unused ones are H or OH. Bridge positions count the residues as written; N and C are the ends. Square brackets hold non-standard residues; d marks the D form. Peptide text beside a SMILES is read from it. ξ: configuration not given here. X15 = O=C(/C(=C/c1c[nH]c2ccccc12)N[*:1])[*:2]; X16 = CC(c1c[nH]c2ccccc12)C(N[*:1])C(=O)[*:2]; βAsp = O=C(O)[CH](CC(=O)[*:2])N[*:1]; ξLeu(3ξ-OH) = CC(C)C(O)C(N)C(=O)O; X14 = O=C(C1C(O)CCN1[*:1])[*:2]
# Tested on: P388 leukemia ip, CD2F1 mice, survival T/C
# Assay: NCI In Vivo Anticancer Drug Screen. Data for tumor model P388 Leukemia (intraperitoneal) in CD2F1 (CDF1) mice
# Settings: endpoint: median survival time, higher = longer survival
# Procedure, shortened: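 Mice carrying the transplanted tumor received test compound or vehicle. Survival was recorded in each group, and the value is the treated-group measurement divided by that of the vehicle-treated control group.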
# [1] = dose: 100.0 mg/kg/injection, schedule: Q01DX009 (ip), vehicle: saline with Tween-80
# [2] = dose: 200.0 mg/kg/injection, schedule: Q01DX009 (ip), vehicle: saline with Tween-80
# [3] = dose: 400.0 mg/kg/injection, schedule: Q01DX009 (ip), vehicle: saline with Tween-80
# [4] = dose: 25.0 mg/kg/injection, schedule: Q01DX009 (ip), vehicle: distilled water + Tween-80
# [5] = dose: 100.0 mg/kg/injection, schedule: Q01DX009 (ip), vehicle: distilled water + Tween-80
# [6] = dose: 200.0 mg/kg/injection, schedule: Q01DX009 (ip), vehicle: distilled water + Tween-80
# [7] = dose: 25.0 mg/kg/injection, schedule: Q01DX009 (ip), vehicle: saline
# [8] = dose: 50.0 mg/kg/injection, schedule: Q01DX005 (ip), vehicle: saline with Tween-80
# [9] = dose: 100.0 mg/kg/injection, schedule: Q04DX003 (ip), vehicle: saline with Tween-80
# [10] = dose: 200.0 mg/kg/injection, schedule: Q04DX003 (ip), vehicle: saline with Tween-80
# [11] = dose: 100.0 mg/kg/injection, schedule: Q01DX009 (ip), vehicle: Klucel (hydroxypropylcellulose) (HPC)
# [12] = dose: 100.0 mg/kg/injection, schedule: Q01DX009 (ip), vehicle: saline + alcohol
# [13] = dose: 200.0 mg/kg/injection, schedule: Q01DX009 (ip), vehicle: saline + alcohol
# [14] = dose: 100.0 mg/kg/injection, schedule: Q01DX005 (ip), vehicle: saline with Tween-80
# [15] = dose: 200.0 mg/kg/injection, schedule: Q01DX005 (ip), vehicle: saline with Tween-80
compound,measurement,setting,value
COc1ccc2ncc(COC(=O)NC3CCCCC3)c(COC(=O)NC3CCCCC3)c2c1,T/C,"dose: 12.5 mg/kg/injection, schedule: Q01DX005 (ip), vehicle: Klucel (hydroxypropylcellulose) (HPC)",91 % of control
same,T/C,"dose: 25.0 mg/kg/injection, schedule: Q01DX005 (ip), vehicle: Klucel (hydroxypropylcellulose) (HPC)",94 % of control
same,T/C,"dose: 50.0 mg/kg/injection, schedule: Q01DX005 (ip), vehicle: Klucel (hydroxypropylcellulose) (HPC)",88 % of control
CCCCc1c(O)c2c(=O)[nH]c(C)nc2oc1=O,T/C,"dose: 3.75 mg/kg/injection, schedule: Q01DX005 (ip), vehicle: Klucel (hydroxypropylcellulose) (HPC)",96 % of control
same,T/C,"dose: 7.5 mg/kg/injection, schedule: Q01DX005 (ip), vehicle: Klucel (hydroxypropylcellulose) (HPC)",95 % of control
same,T/C,"dose: 15.0 mg/kg/injection, schedule: Q01DX005 (ip), vehicle: Klucel (hydroxypropylcellulose) (HPC)",92 % of control
CC1NC(=O)C(C(C)O)NC(=O)C(NC(=O)C(CO)NC(=O)CC(N)C(=O)O)C(C)OC(=O)C2C(O)CCN2C(=O)C(C(O)C(C)C)NC(=O)C(C(C)c2c[nH]c3ccccc23)NC(=O)/C(=C/c2c[nH]c3ccccc23)NC(=O)C2C(O)CCN2C(=O)CNC1=O (stereo unspecified) (βAsp-STTAG[X14][X15][X16][ξLeu(3ξ-OH)][X14]; ester 2-C; configuration not given here),T/C,[1],105 % of control
same,T/C,[2],89 % of control
same,T/C,[3],91 % of control
COc1ccc([N+](=O)[O-])c(C=O)c1OS(=O)(=O)c1ccc(C)c([N+](=O)[O-])c1,T/C,[4],93 % of control
same,T/C,[5],98 % of control
same,T/C,[6],90 % of control
same,T/C,"dose: 400.0 mg/kg/injection, schedule: Q01DX009 (ip), vehicle: distilled water + Tween-80",90 % of control
Nc1ccc2c(c1)CN1C(=O)c3ccccc3C1=N2,T/C,"dose: 6.25 mg/kg/injection, schedule: Q01DX009 (ip), vehicle: saline with Tween-80",100 % of control
same,T/C,"dose: 12.5 mg/kg/injection, schedule: Q01DX009 (ip), vehicle: saline with Tween-80",93 % of control
same,T/C,"dose: 22.2 mg/kg/injection, schedule: Q01DX009 (ip), vehicle: saline with Tween-80",111 % of control
same,T/C,"dose: 25.0 mg/kg/injection, schedule: Q01DX009 (ip), vehicle: saline with Tween-80",96 % of control
same,T/C,[7],91 % of control
same,T/C,"dose: 30.0 mg/kg/injection, schedule: Q01DX009 (ip), vehicle: saline with Tween-80",104 % of control
same,T/C,"dose: 33.4 mg/kg/injection, schedule: Q01DX009 (oral), vehicle: saline with Tween-80",97 % of control
same,T/C,"dose: 40.0 mg/kg/injection, schedule: Q01DX009 (ip), vehicle: saline with Tween-80",90 % of control
same,T/C,"dose: 50.0 mg/kg/injection, schedule: Q01DX009 (ip), vehicle: saline",161 % of control
same,T/C,"dose: 50.0 mg/kg/injection, schedule: Q01DX009 (oral), vehicle: saline with Tween-80",108 % of control
same,T/C,"dose: 60.0 mg/kg/injection, schedule: Q01DX009 (ip), vehicle: saline with Tween-80",119 % of control
same,T/C,"dose: 75.0 mg/kg/injection, schedule: Q01DX009 (oral), vehicle: saline with Tween-80",108 % of control
same,T/C,[1],100 % of control and 93 % of control
same,T/C,"dose: 112.4 mg/kg/injection, schedule: Q01DX009 (ip), vehicle: saline with Tween-80",121 % of control
same,T/C,"dose: 112.4 mg/kg/injection, schedule: Q01DX009 (oral), vehicle: saline with Tween-80",117 % of control
same,T/C,"dose: 168.5 mg/kg/injection, schedule: Q01DX009 (oral), vehicle: saline with Tween-80",108 % of control
NC(=O)c1ccc2nccn2c1,T/C,"dose: 50.0 mg/kg/injection, schedule: Q04DX003 (ip), vehicle: saline",101 % of control
same,T/C,"dose: 100.0 mg/kg/injection, schedule: Q04DX003 (ip), vehicle: saline",115 % of control
same,T/C,"dose: 200.0 mg/kg/injection, schedule: Q04DX003 (ip), vehicle: saline",119 % of control
Cc1c(C(N)=O)c2ccccc2c2ccccc12,T/C,"dose: 12.5 mg/kg/injection, schedule: Q01DX005 (ip), vehicle: saline with Tween-80",109 % of control
same,T/C,"dose: 25.0 mg/kg/injection, schedule: Q01DX005 (ip), vehicle: saline with Tween-80",95 % of control
same,T/C,[8],93 % of control and 95 % of control
O=C(N=C1C(=O)C2(CCCCC2)C2(N=C(c3ccccc3)OC2=O)C12CCCCC2)c1ccccc1 (stereo unspecified),T/C,"dose: 60.0 mg/kg/injection, schedule: Q01DX005 (ip), vehicle: saline with Tween-80",107 % of control
same,T/C,"dose: 120.0 mg/kg/injection, schedule: Q01DX005 (ip), vehicle: saline with Tween-80",100 % of control
same,T/C,"dose: 240.0 mg/kg/injection, schedule: Q01DX005 (ip), vehicle: saline with Tween-80",100 % of control
CCCCCCCCCCCCCCCCCc1n[nH]c(=S)o1,T/C,"dose: 50.0 mg/kg/injection, schedule: Q01DX009 (ip), vehicle: saline with Tween-80",99 % of control
same,T/C,[1],99 % of control
same,T/C,[2],98 % of control
N#Cc1cnn(C(N)=O)c1N,T/C,[1],110 % of control
same,T/C,[9],100 % of control
same,T/C,[2],110 % of control
same,T/C,[10],100 % of control
same,T/C,[3],100 % of control
same,T/C,"dose: 400.0 mg/kg/injection, schedule: Q04DX003 (ip), vehicle: saline with Tween-80",100 % of control
Nc1ncnc2c1nnn2C1OC(CO)C(O)C1O (stereo unspecified),T/C,"dose: 50.0 mg/kg/injection, schedule: Q01DX009 (ip), vehicle: Klucel (hydroxypropylcellulose) (HPC)",157 % of control
same,T/C,[11],100 % of control
C[N+]12CN3CN(CP(C3)C1)C2,T/C,"dose: 6.25 mg/kg/injection, schedule: Q01DX009 (ip), vehicle: saline",99 % of control
same,T/C,"dose: 12.5 mg/kg/injection, schedule: Q01DX009 (ip), vehicle: saline",100 % of control
same,T/C,[7],101 % of control
COc1cc2c(cc1NC(C)=O)C(=O)CCCC2,T/C,[12],107 % of control
same,T/C,[13],103 % of control
same,T/C,"dose: 400.0 mg/kg/injection, schedule: Q01DX009 (ip), vehicle: saline + alcohol",110 % of control
CN1C(C)(C)CC2=C(c3ccccc3)c3ccccc3C2C1(C)C (stereo unspecified),T/C,[8],106 % of control
same,T/C,[14],100 % of control
same,T/C,[15],102 % of control
CC1=Nc2ccccc2N(C)/C1=C/C1=CC(=O)c2ccccc2C1=O,T/C,[9],108 % of control
same,T/C,[10],117 % of control
COC(=O)c1cc(C)c(NC(C)=O)cc1C,T/C,"dose: 12.5 mg/kg/injection, schedule: Q01DX009 (ip), vehicle: distilled water + Tween-80",100 % of control
same,T/C,[4],98 % of control
same,T/C,"dose: 50.0 mg/kg/injection, schedule: Q01DX009 (ip), vehicle: distilled water + Tween-80",90 % of control
same,T/C,[5],98 % of control
same,T/C,[6],89 % of control
CC(=O)C1C(=O)C(=O)N(c2ccc(C)c(C)c2)C1=O (stereo unspecified),T/C,[8],101 % of control
same,T/C,[14],97 % of control
same,T/C,[15],100 % of control
Cc1c([N+](=O)[O-])c(=O)oc2c(C)c3occc(=O)c3cc12,T/C,"dose: 100.0 mg/kg/injection, schedule: Q01DX001 (ip), vehicle: saline with Tween-80",89 % of control
same,T/C,"dose: 200.0 mg/kg/injection, schedule: Q01DX001 (ip), vehicle: saline with Tween-80",90 % of control
same,T/C,"dose: 400.0 mg/kg/injection, schedule: Q01DX001 (ip), vehicle: saline with Tween-80",86 % of control
CCC/C=[CH]/[Hg][Cl],T/C,"dose: 6.25 mg/kg/injection, schedule: Q04DX003 (ip), vehicle: other",110 % of control
same,T/C,"dose: 12.5 mg/kg/injection, schedule: Q04DX003 (ip), vehicle: other",110 % of control
CCCCCCCCCCCCCCCCCC(=O)OCCN(C=O)C[n+]1ccccc1,T/C,"dose: 100.0 mg/kg/injection, schedule: Q04DX002 (ip), vehicle: saline",93 % of control
same,T/C,"dose: 200.0 mg/kg/injection, schedule: Q04DX002 (ip), vehicle: saline",120 % of control
CC(C)(C)C(=O)Nc1c(Cl)cc(Br)cc1Br,T/C,"dose: 50.0 mg/kg/injection, schedule: Q01DX009 (ip), vehicle: saline + alcohol",105 % of control
same,T/C,[12],101 % of control
same,T/C,[13],100 % of control
CCC(C)C1CCCCC1 (stereo unspecified),T/C,[11],104 % of control
same,T/C,"dose: 200.0 mg/kg/injection, schedule: Q01DX009 (ip), vehicle: Klucel (hydroxypropylcellulose) (HPC)",100 % of control
same,T/C,"dose: 400.0 mg/kg/injection, schedule: Q01DX009 (ip), vehicle: Klucel (hydroxypropylcellulose) (HPC)",101 % of control
